These results are taken from ChEMBL document CHEMBL1201862, “PubChem BioAssay data set” (2004).

In general, GI50 refers to the concentration giving 50% growth inhibition.

Some test systems named below: A549; ACHN; BT-549; CCRF-CEM; DU-145; HCT-116; HCT-15; HOP-62; K562; NCI-H226; NCI-H23; NCI-H522; NCI/ADR-RES; OVCAR-3; OVCAR-4; PC-3; RXF 393; SK-MEL-5; U-251; UO-31.
Common to all, as to assay: DTP human tumour cell line panel, 48 h

Each structure is given as a SMILES string.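 Test compounds were applied to cells in 96-well plates for 48 hours at 5 doses. Here, GI50 denotes the concentration required for 50% inhibition of growth.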 Calls of active or inactive are those of the source. Cut-off read from the data, not from the text of the source: active = GI50 up to about 1.1 µM and inactive = higher. Bounds are passed on as bounds.

Regarding `Cc1cc(C)c2c(SCc3ccc(Cl)cc3Cl)nc(N)nc2n1`, the GI50 in the assay with A549 was 36.3 µM (inactive); with ACHN, 57.5 µM (inactive); in the assay on BT-549, > 100 µM (inactive); in the assay on CCRF-CEM, > 100 µM (inactive); with DU-145, > 100 µM (inactive); in the assay with HCT-116 it was 27 µM (inactive). In addition, the GI50 was over 100 µM in the assay with HCT-15; 37.4 µM (inactive) in the assay on HOP-62; 22.7 µM (inactive) with K562; > 100 µM (inactive) in the assay with NCI-H226; > 100 µM (inactive) with NCI-H23; 15.5 µM (inactive) in the assay with NCI-H522. Also, the GI50 was > 100 µM (inactive) with NCI/ADR-RES; 20.6 µM (inactive) in the assay with OVCAR-3; > 100 µM (inactive) in the assay with OVCAR-4; 35.6 µM (inactive) with PC-3; > 100 µM (inactive) in the assay with RXF 393; > 100 µM (inactive) with SK-MEL-5. Also, the GI50 in the assay with U-251 is 36.5 µM (inactive); with UO-31 it was 23.5 µM (inactive).

Consider `O=C1[C@H](c2ccccc2)C2c3ccccc3CCN12` (stereo partly drawn), for which the GI50 with A549, in the assay with ACHN, with BT-549, with CCRF-CEM, in the assay with DU-145 and in the assay on HCT-116 was > 10 µM (inactive) in each case. Besides, the GI50 in the assay on HCT-15 is over 10 µM; in the assay on HOP-62, > 10 µM (inactive); with K562 it was > 10 µM (inactive); in the assay on NCI-H226 it was > 10 µM (inactive); in the assay on NCI-H23, > 10 µM (inactive); in the assay with NCI-H522 it was > 10 µM (inactive). The GI50 in the assay with NCI/ADR-RES, in the assay with OVCAR-3, in the assay on OVCAR-4, with PC-3, with RXF 393 and in the assay on SK-MEL-5 was > 10 µM (inactive) throughout. For the same compound, the GI50 is > 10 µM (inactive) in the assay on U-251 and > 100 µM (inactive) with UO-31.

On to `CCOC(=O)CSc1nnc(C(Sc2nc(-c3ccccc3)c(-c3ccccc3)[nH]2)C(C)C)n1-c1ccccc1` (stereo not drawn), for which the GI50 in the assay with A549 was 19.2 µM (inactive); with ACHN, 19.7 µM (inactive); in the assay with BT-549, 24.5 µM (inactive); in the assay with CCRF-CEM it was 14.3 µM (inactive); in the assay with DU-145 it was 39.6 µM (inactive); with HCT-116, 14.5 µM (inactive). Further, the GI50 in the assay on HCT-15 is 18.1 µM; in the assay with HOP-62, > 10 µM (inactive); in the assay with K562, 24.7 µM (inactive); in the assay on NCI-H226 it was 17.1 µM (inactive); in the assay on NCI-H23 it was > 10 µM (inactive); in the assay on NCI-H522 it was 15.2 µM (inactive). Besides, the GI50 was 26.9 µM (inactive) with NCI/ADR-RES; > 10 µM (inactive) in the assay on OVCAR-3; 17.5 µM (inactive) in the assay with OVCAR-4; 28.6 µM (inactive) with PC-3; 26.2 µM (inactive) in the assay on RXF 393; > 10 µM (inactive) in the assay on SK-MEL-5. For the same compound, the GI50 in the assay on U-251 was > 10 µM (inactive); with UO-31 it was 17.4 µM (inactive).

On to `CCOC(=O)CN1CCNCCN(CC(=O)OCC)CCNCC1`, for which the GI50 in the assay on A549, in the assay on ACHN, with BT-549, in the assay on CCRF-CEM, in the assay with DU-145 and in the assay with HCT-116 was > 100 µM (inactive) throughout. Besides, the GI50 in the assay with HCT-15 is over 100 µM; in the assay on HOP-62, > 100 µM (inactive); in the assay with K562 it was 80.5 µM (inactive); with NCI-H226, > 100 µM (inactive); in the assay on NCI-H522, > 100 µM (inactive); with NCI/ADR-RES, > 100 µM (inactive). The GI50 with OVCAR-3, with OVCAR-4, with PC-3, with RXF 393, in the assay with SK-MEL-5 and in the assay with U-251 was > 100 µM (inactive) in each case. Further, the GI50 in the assay on UO-31 is 52.6 µM (inactive).

With `COc1ccc(N2CCOCC2)cc1`, the GI50 in the assay on A549, with ACHN, in the assay with BT-549, in the assay with CCRF-CEM, with DU-145 and in the assay on HCT-116 was > 100 µM (inactive) each time. The GI50 is over 100 µM in the assay with HCT-15; > 100 µM (inactive) in the assay with HOP-62; > 100 µM (inactive) in the assay on K562; > 100 µM (inactive) with NCI-H226; > 100 µM (inactive) in the assay with NCI-H23; > 100 µM (inactive) in the assay on NCI-H522. Besides, the GI50 with NCI/ADR-RES, in the assay with OVCAR-3, in the assay with OVCAR-4, in the assay with PC-3, in the assay with RXF 393 and in the assay on SK-MEL-5 was > 100 µM (inactive) each time. For the same compound, the GI50 in the assay on U-251 and in the assay on UO-31 was > 100 µM (inactive) each time.

Take `O=C1/C(=C/c2ccc(O)cc2)Oc2ccccc21`: the GI50 was > 100 µM (inactive) in the assay on A549; > 100 µM (inactive) with ACHN; > 100 µM (inactive) in the assay on BT-549; 32.2 µM (inactive) in the assay on CCRF-CEM; > 100 µM (inactive) in the assay with DU-145; 98.4 µM (inactive) in the assay with HCT-116. The GI50 in the assay on HCT-15 is over 100 µM; with HOP-62, > 100 µM (inactive); in the assay with K562, 40.9 µM (inactive); with NCI-H226, > 100 µM (inactive); with NCI-H23, 62.7 µM (inactive); in the assay with NCI-H522, 23.8 µM (inactive). Further, the GI50 in the assay on NCI/ADR-RES is > 100 µM (inactive); in the assay on OVCAR-3, > 100 µM (inactive); in the assay on OVCAR-4, 72.6 µM (inactive); in the assay with PC-3 it was > 100 µM (inactive); in the assay on RXF 393, > 100 µM (inactive); in the assay with SK-MEL-5, > 100 µM (inactive). For the same compound, in the assay on U-251, the GI50 is > 100 µM (inactive).

Turning to `OC1CCCCCCCCCCC1[S+]1CCCC1.O[B-](F)(F)F` (stereo not drawn), the GI50 with A549 was 96.6 µM (inactive); with ACHN, > 100 µM (inactive); in the assay with BT-549, > 100 µM (inactive); with CCRF-CEM, > 100 µM (inactive); with DU-145 it was > 100 µM (inactive); in the assay on HCT-116, > 100 µM (inactive). Further, the GI50 in the assay on HCT-15 is over 100 µM; in the assay with HOP-62, > 100 µM (inactive); in the assay with K562, 29.6 µM (inactive); with NCI-H226 it was 50.9 µM (inactive); with NCI-H23 it was 72.6 µM (inactive); in the assay on NCI-H522, > 100 µM (inactive). Further, the GI50 with NCI/ADR-RES is > 100 µM (inactive); in the assay on OVCAR-3, 52.5 µM (inactive); in the assay with OVCAR-4, 85.9 µM (inactive); in the assay on PC-3 it was 56.8 µM (inactive); in the assay on RXF 393, > 100 µM (inactive); in the assay with SK-MEL-5, 27.7 µM (inactive). For the same compound, the GI50 in the assay on U-251 and in the assay with UO-31 was > 100 µM (inactive) throughout.
